Data as given in ChEMBL document CHEMBL1201862, “PubChem BioAssay data set” (2004).
Activity calls are given as the source filed them.

Key:
[1] = target: Peroxisome proliferator-activated receptor gamma/Nuclear receptor coactivator 1 (Homo sapiens, UniProt P37231); assay: TR-FRET dose response biochemical High Throughput Screening assay for agonists of the steroid receptor coactivator 1 (SRC-1) recruitment by the peroxisome proliferator-activated receptor gamma (PPAR gamma): non-selective agonists. [Related pubchem assays (depositor defined):AID1300, AID1808, AID504735, AID631]; type: protein assay
Peroxisome proliferator-activated receptor gamma/Nuclear receptor coactivator 1, sequence (P37231 whole entry): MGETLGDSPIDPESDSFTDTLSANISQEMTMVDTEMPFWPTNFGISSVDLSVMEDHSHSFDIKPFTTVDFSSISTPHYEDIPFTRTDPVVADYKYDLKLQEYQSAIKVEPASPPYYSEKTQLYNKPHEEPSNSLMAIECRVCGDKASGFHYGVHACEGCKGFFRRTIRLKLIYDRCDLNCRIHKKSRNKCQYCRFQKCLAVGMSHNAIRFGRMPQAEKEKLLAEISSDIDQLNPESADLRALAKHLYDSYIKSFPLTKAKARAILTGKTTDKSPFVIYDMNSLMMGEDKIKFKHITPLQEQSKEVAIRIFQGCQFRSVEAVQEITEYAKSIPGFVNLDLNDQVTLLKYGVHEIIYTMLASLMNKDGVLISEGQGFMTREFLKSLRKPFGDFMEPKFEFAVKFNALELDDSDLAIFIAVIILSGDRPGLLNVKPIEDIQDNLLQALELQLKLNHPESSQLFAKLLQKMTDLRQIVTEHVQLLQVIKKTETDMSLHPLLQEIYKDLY
Peroxisome proliferator-activated receptor gamma/Nuclear receptor coactivator 1, sequence (Q15788 whole entry, further chain): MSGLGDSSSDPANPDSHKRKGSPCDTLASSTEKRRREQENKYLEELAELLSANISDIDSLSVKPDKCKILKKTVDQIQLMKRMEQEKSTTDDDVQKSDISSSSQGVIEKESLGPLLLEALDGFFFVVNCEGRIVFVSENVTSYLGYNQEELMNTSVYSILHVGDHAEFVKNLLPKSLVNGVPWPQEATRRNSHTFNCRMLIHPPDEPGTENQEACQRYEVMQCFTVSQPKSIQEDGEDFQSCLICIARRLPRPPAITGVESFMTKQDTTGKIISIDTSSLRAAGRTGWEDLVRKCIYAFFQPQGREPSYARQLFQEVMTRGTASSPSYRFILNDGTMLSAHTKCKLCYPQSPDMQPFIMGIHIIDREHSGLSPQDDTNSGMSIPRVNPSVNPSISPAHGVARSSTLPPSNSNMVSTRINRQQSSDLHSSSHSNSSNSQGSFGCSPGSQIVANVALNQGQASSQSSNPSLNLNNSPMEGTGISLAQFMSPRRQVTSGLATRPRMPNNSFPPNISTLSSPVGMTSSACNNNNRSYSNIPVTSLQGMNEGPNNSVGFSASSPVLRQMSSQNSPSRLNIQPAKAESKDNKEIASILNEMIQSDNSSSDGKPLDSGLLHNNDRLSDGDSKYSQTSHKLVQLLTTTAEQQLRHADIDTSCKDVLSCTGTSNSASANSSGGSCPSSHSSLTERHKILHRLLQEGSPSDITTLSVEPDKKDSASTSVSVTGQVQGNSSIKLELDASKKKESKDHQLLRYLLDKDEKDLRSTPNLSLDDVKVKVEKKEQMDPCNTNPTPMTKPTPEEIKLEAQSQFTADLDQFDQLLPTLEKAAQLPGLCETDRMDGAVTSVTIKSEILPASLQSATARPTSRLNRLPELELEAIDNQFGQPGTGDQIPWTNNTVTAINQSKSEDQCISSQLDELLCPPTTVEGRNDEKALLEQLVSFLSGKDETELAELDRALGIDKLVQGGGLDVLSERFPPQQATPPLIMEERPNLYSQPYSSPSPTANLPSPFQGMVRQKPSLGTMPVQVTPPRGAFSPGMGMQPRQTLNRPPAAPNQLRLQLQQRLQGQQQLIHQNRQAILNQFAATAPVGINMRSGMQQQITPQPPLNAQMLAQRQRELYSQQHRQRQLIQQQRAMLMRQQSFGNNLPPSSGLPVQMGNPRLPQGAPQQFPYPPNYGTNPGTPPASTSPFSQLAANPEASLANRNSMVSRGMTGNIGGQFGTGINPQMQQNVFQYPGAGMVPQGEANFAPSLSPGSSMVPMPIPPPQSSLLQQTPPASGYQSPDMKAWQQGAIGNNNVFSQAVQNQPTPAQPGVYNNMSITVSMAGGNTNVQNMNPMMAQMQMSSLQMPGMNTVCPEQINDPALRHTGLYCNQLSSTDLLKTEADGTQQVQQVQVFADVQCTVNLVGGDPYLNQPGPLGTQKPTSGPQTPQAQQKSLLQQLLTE

[2] = target: Mitogen-activated protein kinase 10 (Homo sapiens, UniProt P53779); assay: Dose response biochemical screening assay for inhibitors of c-Jun N-Terminal Kinase 3 (JNK3). [Related pubchem assays: 746 ]
Mitogen-activated protein kinase 10, sequence (P53779 whole entry): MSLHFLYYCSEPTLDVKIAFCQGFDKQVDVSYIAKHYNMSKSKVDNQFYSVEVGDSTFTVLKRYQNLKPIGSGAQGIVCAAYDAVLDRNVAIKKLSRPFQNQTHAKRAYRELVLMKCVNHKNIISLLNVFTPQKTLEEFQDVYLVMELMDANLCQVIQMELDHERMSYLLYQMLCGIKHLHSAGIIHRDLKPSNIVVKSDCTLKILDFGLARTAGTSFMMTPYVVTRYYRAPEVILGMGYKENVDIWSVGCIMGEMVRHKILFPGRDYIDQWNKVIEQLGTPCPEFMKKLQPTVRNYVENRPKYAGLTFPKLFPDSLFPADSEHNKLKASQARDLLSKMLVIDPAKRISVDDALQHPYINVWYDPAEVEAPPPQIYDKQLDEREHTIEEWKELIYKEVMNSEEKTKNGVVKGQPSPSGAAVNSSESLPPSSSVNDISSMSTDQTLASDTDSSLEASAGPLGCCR

[3] = target: Peroxisome proliferator-activated receptor gamma/Nuclear receptor coactivator 2 (Homo sapiens, UniProt P37231); assay: (§1) TR-FRET dose response biochemical High Throughput Screening assay for agonists of the steroid receptor coactivator 2 (SRC-2) recruitment by the peroxisome proliferator-activated receptor gamma (PPAR gamma): non-selective agonists. [Related pubchem assays: 1297, 1032 ]; type: functional
[4] = target: Peroxisome proliferator-activated receptor gamma/Nuclear receptor coactivator 3 (Homo sapiens, UniProt P37231); assay: as §1, with “3 (SRC-3)” for “2 (SRC-2)”, “1301 (Confirmation screen.), 1048 (Primary screen.)]” for “1297, 1032 ]”; type: functional
[5] = target: T1, Zinc finger protein mex-5 (Caenorhabditis elegans, UniProt Q9XUB2); assay: MEX-5/TCR-2 RNA interaction inhibitors, dose response, biochemical, C. elegans, fluorescence polarization (AID 1960)
T1 sequence (Q9XUB2 whole entry): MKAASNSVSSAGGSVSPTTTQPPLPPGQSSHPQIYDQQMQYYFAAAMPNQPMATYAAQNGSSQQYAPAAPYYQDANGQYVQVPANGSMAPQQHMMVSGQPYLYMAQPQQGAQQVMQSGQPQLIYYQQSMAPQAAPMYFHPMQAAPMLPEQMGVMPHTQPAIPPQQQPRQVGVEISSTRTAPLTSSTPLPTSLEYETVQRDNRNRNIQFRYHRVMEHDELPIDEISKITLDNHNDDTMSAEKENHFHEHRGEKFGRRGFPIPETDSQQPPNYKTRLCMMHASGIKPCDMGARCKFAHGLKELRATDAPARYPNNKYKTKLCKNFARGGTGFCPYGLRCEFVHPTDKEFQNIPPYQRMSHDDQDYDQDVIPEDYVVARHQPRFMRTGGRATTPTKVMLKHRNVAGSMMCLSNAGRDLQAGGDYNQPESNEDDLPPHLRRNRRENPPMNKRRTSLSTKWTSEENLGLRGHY

NS3 = NS3 (Hepatitis C virus, UniProt A3EZJ3); assay: HCV NS3 helicase inhibitor potency, dose response, biochemical, fluorescence polarization, ChemBridge library (AID 743264)
NS3, sequence (A3EZJ3 whole entry, the tested form may be a part): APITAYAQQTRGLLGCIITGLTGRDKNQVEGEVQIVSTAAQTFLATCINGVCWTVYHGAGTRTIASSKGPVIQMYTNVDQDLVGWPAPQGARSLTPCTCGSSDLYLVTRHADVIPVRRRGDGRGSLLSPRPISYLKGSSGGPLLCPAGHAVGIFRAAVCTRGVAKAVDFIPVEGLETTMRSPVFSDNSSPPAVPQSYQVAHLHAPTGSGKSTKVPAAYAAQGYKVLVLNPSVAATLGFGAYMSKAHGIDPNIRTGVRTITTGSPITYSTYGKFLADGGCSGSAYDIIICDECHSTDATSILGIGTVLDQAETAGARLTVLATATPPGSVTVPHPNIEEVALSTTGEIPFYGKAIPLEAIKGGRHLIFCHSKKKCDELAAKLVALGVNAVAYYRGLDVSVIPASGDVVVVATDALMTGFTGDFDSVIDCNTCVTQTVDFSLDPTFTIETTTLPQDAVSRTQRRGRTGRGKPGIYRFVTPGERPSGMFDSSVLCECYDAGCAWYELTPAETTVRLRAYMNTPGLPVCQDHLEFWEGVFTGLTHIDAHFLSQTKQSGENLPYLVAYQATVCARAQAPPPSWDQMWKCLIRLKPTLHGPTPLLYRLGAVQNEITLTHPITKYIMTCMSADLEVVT

[6] = target: T2, RNA-binding protein pos-1 (Caenorhabditis elegans, UniProt G5EF15); assay: inhibitors of POS-1/mex-3 RNA binding, dose response, biochemical, fluorescence polarization (AID 1964);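 note: purified POS-1 fused to maltose binding protein made in E. coli; potency of compounds blocking POS-1 binding to fluorescent RNA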
T2 sequence (G5EF15 whole entry): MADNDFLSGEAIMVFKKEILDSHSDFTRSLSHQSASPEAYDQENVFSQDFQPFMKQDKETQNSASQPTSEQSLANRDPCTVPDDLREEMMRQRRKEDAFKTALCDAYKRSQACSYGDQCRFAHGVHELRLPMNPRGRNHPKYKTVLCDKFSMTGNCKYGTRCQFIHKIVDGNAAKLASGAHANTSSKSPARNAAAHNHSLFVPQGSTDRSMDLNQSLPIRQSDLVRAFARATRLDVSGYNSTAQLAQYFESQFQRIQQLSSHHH

[7] = target: Tyrosine-protein phosphatase non-receptor type 7 (Homo sapiens, UniProt P35236); assay: inhibitors of human HePTP phosphatase, […], biochemical, absorbance, leukemia target (AID 521); type: functional
Tyrosine-protein phosphatase non-receptor type 7, sequence (P35236 whole entry): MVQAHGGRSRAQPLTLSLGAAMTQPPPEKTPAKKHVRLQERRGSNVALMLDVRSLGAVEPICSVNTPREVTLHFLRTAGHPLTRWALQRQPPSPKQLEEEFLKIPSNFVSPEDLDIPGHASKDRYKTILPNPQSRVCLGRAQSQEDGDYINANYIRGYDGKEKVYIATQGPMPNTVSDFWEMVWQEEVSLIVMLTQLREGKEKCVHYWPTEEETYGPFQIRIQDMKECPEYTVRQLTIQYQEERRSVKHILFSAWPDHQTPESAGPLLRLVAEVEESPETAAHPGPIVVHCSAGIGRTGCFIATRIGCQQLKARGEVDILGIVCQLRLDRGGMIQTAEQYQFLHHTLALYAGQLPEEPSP

Estrogen receptor = target: T3, Estrogen receptor (Homo sapiens, UniProt P03372);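 note: potency for inhibiting coactivator peptide recruitment to the receptor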
T3 sequence (P03372 whole entry): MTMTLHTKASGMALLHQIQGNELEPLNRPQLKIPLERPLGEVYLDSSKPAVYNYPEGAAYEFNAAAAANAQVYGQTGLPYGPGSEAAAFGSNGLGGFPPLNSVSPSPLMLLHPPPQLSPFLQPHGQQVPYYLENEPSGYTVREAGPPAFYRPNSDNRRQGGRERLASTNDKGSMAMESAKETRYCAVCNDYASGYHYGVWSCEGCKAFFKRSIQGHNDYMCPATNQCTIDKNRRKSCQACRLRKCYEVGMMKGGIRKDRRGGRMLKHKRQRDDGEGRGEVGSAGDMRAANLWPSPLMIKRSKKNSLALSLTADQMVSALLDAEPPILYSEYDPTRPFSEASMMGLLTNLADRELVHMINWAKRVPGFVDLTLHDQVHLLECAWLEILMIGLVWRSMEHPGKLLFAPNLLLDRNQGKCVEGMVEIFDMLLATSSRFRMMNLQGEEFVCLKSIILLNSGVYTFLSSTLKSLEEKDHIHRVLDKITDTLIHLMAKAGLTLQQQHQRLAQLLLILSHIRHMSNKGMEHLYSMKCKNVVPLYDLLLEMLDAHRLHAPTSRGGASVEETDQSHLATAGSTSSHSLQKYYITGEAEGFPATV

[8] = Single fluorophore orthopox expression reporter, late gene expression Measured in Cell-Based and Microorganism Combination System Using Plate Reader - 2142-08_Inhibitor_Dose_DryPowder_Activity.; type: functional
[9] = A549 cell cytotoxicity, dose response, CellTiter-Glo luminescence, dry powder, set 17 (AID 1117284); type: functional, cell-based
[10] = inhibitors of orthopox intermediate gene expression, dose response, cell-based, single fluorophore reporter, dry powder (AID 1117271); type: functional

CC(=O)c1sc(Nc2ccccn2)nc1C
EC50 [1]: > 79.4 µM (inactive)
IC50 [2]: 40.3 µM (not active)
EC50 [3]: > 79.4 µM (not active)
EC50 [4]: > 79.4 µM (not active)

Cc1cc(C(=O)O)ccc1-n1c(C)ccc1C
EC50 [5]: 8.59 µM (active)
IC50 (NS3): 6.25 µM (inactive)
EC50 [6]: 5.94 µM (active)
IC50 [7]: 0.76 µM (active)
IC50 (Estrogen receptor): 7.53 µM (active)

C[C@@H](O)C#Cc1ccc2c(c1)O[C@@H](CN(C)Cc1ccc(-c3cccc(Cl)c3)cc1)[C@@H](C)CN([C@@H](C)CO)S2(=O)=O
AC50 [8]: 2.54 µM (active)
AC50 [9]: 51.5 µM (active)
AC50 [10]: 3.58 µM (active)
